From patent publication US20140094465A1, “Compounds as S-Nitrosoglutathione Reductase Inhibitors” (N30 PHARMACEUTICALS, INC., priority 2011, published 2014) come the findings set out here.

Test [1] addresses T1, S-nitrosoglutathione reductase (GSNOR) (Homo sapiens, UniProt P11766).
T1 construct: made in house; host or cells: E. coli
The test is described as follows: GSNOR assay (inhibition of GSNOR activity, NADH absorbance at 340 nm). The conditions noted are these: GSNOR inhibitor activity, Tables 1-6; read-out: IC50 range. The test is classed as biochemical. The procedure, abridged:
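Recombinant GSNOR purified from E. coli, tag removed. Final conditions: 100 mM NaPO4 pH 7.4, 0.240 mM GSNO, 0.300 mM NADH, 0.5 μg/mL enzyme, 1% DMSO; NADH loss followed as 340 nm absorbance change over 3 min at 25 °C. Compounds 100–0.003 μM, triplicate; IC50 by curve analysis.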

Test [2] deals with dextran sodium sulfate (DSS)-induced IBD. The test is described as follows: Acute prophylactic model of DSS-induced IBD. The test is classed as in vivo, mouse. The conditions noted are these: for decrease of percent of mice with severe colon injury scores via endoscopy / decrease of percent of mice with severe colon injury scores via histopathology: prophylactic.
Test [3] deals with cigarette smoke-induced COPD. The experiment in a line: Subchronic (11 day) cigarette smoke exposure COPD model. The test is classed as in vivo, mouse. The conditions noted are these: subchronic 11 day model. The procedure: Infiltration of inflammatory cells into the bronchoalveolar lavage fluid (BALF) and BALF levels of chemokines involved in inflammation and tissue turnover/repair were measured to assess the influences of GSNOR inhibitors on some of the early events associated with the initiation and progression of COPD. […] In animal models, changes in lung pathology are only evident after extended (several months) duration of exposure to cigarette smoke, thus making chronic models prohibitive as effective screening tools. […] The key roles of inflammation in the initiation and progression of COPD, make these short duration models relevant for initial tests of efficacy of novel therapeutics. Female C57Bl/6 mice (N=10 per group) were exposed to cigarette smoke generated from Marlboro 100 cigarettes without filters. Exposure times were 25 min. on study day 1, 35 min. on study day 2, and 45 min. on study days 3 to 11. GSNOR inhibitors were administered one hour prior to smoke exposure on each day. GSNOR inhibitors were dosed orally at 1 to 10 mg/kg/day for 11 days. […] The effect of GSNOR inhibitors were compared to vehicle treated controls and expressed as percent inhibition of the cigarette smoke induced increases in BALF cell numbers. Roflumilast was used as the positive control for the study and was dosed at 5 mg/kg/day. A group of naïve mice (N=10) was exposed to air and dosed with vehicle as a negative control for the study.

T1 sequence (P11766 whole entry): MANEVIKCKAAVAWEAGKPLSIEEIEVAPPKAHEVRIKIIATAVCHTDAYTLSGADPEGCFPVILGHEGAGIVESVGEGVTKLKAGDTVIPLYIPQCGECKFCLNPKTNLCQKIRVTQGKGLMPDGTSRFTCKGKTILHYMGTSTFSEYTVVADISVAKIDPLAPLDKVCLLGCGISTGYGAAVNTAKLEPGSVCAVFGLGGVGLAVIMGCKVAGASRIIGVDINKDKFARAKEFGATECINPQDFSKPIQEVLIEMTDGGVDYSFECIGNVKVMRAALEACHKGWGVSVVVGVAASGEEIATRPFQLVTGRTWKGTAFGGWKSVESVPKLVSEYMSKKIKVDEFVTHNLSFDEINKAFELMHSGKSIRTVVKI

One may read the IC50 as the concentration needed to halve the response being measured. In the case of `O=c1[nH]c(-c2ccc(-c3c(C(F)(F)F)oc4cc(O)ccc4c3=O)cc2)no1` [IV-31], the IC50 in test [1] was below 100 nM.
Take `O=c1c(-c2ccc(-c3nnn[nH]3)cc2)c(C(F)(F)F)oc2cc(O)ccc12` [IV-23]: the IC50 in test [1] was below 100 nM. For the same compound, in test [2] (oral 10 mg/kg/day for 10 days), the “decrease of percent of mice with severe colon injury scores via endoscopy” value was 75 % of vehicle control and the “decrease of percent of mice with severe colon injury scores via histopathology” value is on record as 17 % of vehicle control.
Turning to `O=C(O)c1ccc(-c2ccc3cc(O)ccc3c2)c(F)c1` [III-2], the IC50 in test [1] was below 100 nM. Moreover, the “decrease of percent of mice with severe colon injury scores via histopathology” value in test [2] (oral 10 mg/kg/day for 10 days) is on record as 26 % of vehicle control.
For the compound `O=C(O)c1ccc(-c2c(C(F)(F)F)oc3cc(O)ccc3c2=O)c(F)c1` [IV-38], in test [1], the concentration for half-maximal inhibition (IC50) is below 100 nM. In addition, in test [2] (oral 10 mg/kg/day for 10 days), the “decrease of percent of mice with severe colon injury scores via endoscopy” value was 58 % of vehicle control and the “decrease of percent of mice with severe colon injury scores via histopathology” value is recorded as 15 % of vehicle control. In test [3] (oral 1 mg/kg/day for 11 days), the “inhibition of smoke-induced increase in lymphocytes in BAL” value was 62%, the “inhibition of smoke-induced increase in macrophages in BAL” value is 44%, the “inhibition of smoke-induced increase in neutrophils in BAL” value came to 68% and the “inhibition of smoke-induced increase in total cells in BAL” value came out at 53%. Also, the “effects compared with roflumilast” value in test [3] (roflumilast 5 mg/kg/day) is given as “comparable to those of roflumilast”.
Regarding `O=c1c2ccc(O)cc2oc(C(F)(F)F)c1[C@H]1CC[C@H](C(=O)O)CC1` [IV-25], in test [1], the IC50 is below 100 nM. Further, in test [2] (oral 0.1 mg/kg/day for 10 days), the “decrease of percent of mice with severe colon injury scores via pathology” value is 12 % of vehicle control and the “decrease of percent of mice with severe colon injury scores via endoscopy” value is reported as 38 % of vehicle control. For the same compound, in test [2] (oral 1 mg/kg/day for 10 days), the “decrease of percent of mice with severe colon injury scores via endoscopy” value is listed as 25 % of vehicle control and the “decrease of percent of mice with severe colon injury scores via histopathology” value is recorded as 33 % of vehicle control. In addition, in test [3] (oral 10 mg/kg/day for 11 days), the “inhibition of smoke-induced increase in eosinophils in BALF” value is 57%, the “inhibition of smoke-induced increase in lymphocytes in BALF” value is listed as 24%, the “inhibition of smoke-induced increase in macrophages in BALF” value is 28% and the “inhibition of smoke-induced increase in neutrophils in BALF” value turned out to be 25%. Besides, in test [3] (oral 10 mg/kg/day for 11 days), the “inhibition of smoke-induced increase in total cells in BALF” value is 26%.
